Entries after “also recorded” stand apart in the source; their conditions may differ.
Key:
[1] = tested on: PSA expression in C4-2 cells; experiment: Western blot of PSA expression in C4-2 cells; format: cell-based; settings: C4-2 cells, hits 20 μM (enzalutamide 25 μM) 3 h, ±10 nM DHT 24 h
Method: Cell lysate protein concentrations were determined in a bicinchoninic acid (BCA) assay. Equal amounts of cell protein were mixed with SDS-PAGE sample buffer and placed in a heat block at 100° C. for 5 min. The protein constituents of C4-2 cells were separated by SDS-PAGE on 10% separating gels, transferred to nitrocellulose membranes and western blots were probed overnight at 4° C. with a 1:1000 dilution of a rabbit anti-hPSA (Cell Signaling, Danvers, MA) primary antibody in Tris-buffered saline (TBS) Tween 20 (TBST) containing 5% non-fat milk. Membranes were washed 3× in TBST for 10 min, then incubated for 1 h at room temperature with a 1:10,000 dilution of the goat anti-rabbit IgG horse radish peroxidase (HRP) conjugated secondary antibody (Invitrogen, Carlsbad, CA) in TBST containing 5% non-fat milk. Western blots were then washed 3× in TBST and developed with Pierce enhanced chemiluminescence (ECL) western blotting substrate (Thermo Fisher Scientific, Waltham, MA). Images of western blot ECL bands were acquired on an iBright™ 1500 imaging system (Thermo Fisher Scientific, Waltham, MA) and quantified by iBright™ image analysis software.

[2] = tested on: LNCaP cells; experiment: Prostate cancer cell line growth inhibition assay, LNCaP; format: cell-based; settings: Homo sapiens, 72 h, read-out: AR positive LnCaP GI50
Method: Prostate Cancer Cell Line Growth Inhibition Assays: The PC-3, DU-145, LNCaP, C4-2, and 22Rv1 PC cell line growth inhibition assays have been described previously (Fancher et al., Assay Drug Dev Technol. 2016, 14:453-477; Fancher et al., Assay Drug Dev Technol. 2019, 17:364-386). On day 1, each PC cell line was harvested, counted, and seeded into two 384-well assay plates, a time zero (T0) and a time 72 h (T72) plate. PC cell lines were all seeded at 1,000 cells per well in 45 μL of tissue culture media in uncoated white clear bottom 384-well assay plates (VWR, #82050-076) using a Matrix electronic multichannel pipette (Thermo Fisher Scientific, Waltham, MA) and cultured overnight at 37° C., 5% CO2, and 95% humidity. On day 2, 25 μL of the CellTiter-Glo® (CTG) (Promega Corporation, Madison, WI) detection reagent was dispensed into the wells of the TO assay plate using a Matrix electronic multichannel pipette, and the RLUs were captured on the SpectraMax® M5e (Molecular Devices LLC, Sunnyvale, CA) microtiter plate reader. Also on day 2, 5 μL of compounds were transferred into the test wells of the T72 384-well assay plates which were returned to the incubator for 72 h. Control wells received DMSO alone. On day 5, 25 μL of the CTG detection reagent was dispensed into the wells of the T72 assay plate using a Matrix electronic multichannel pipette, and the RLU's were captured on the SpectraMax® M5e microtiter plate reader platform.
For the 96-well AR-LBD H^3-DHT radioligand binding assay, eight minimum and maximum plate control wells were utilized to normalize the data. […] To normalize the 72 h compound exposure PC growth inhibition data, the signals from the compound treated wells were processed and expressed as % of the T72 DMSO plate controls. IC50 and GI50 values for each of the bioassays were calculated using GraphPad Prism 9 software to plot and fit data to curves using the Sigmoidal dose response variable slope equation Y=Bottom+[Top-Bottom]/[1+10^(Log EC50−X)*HillSlope].

| SMILES | Endogenous and DHT-enhanced PSA expression [1] | GI50 [2] |
| --- | --- | --- |
| Cc1ccccc1-c1cc(O)c2c(c1)CN(c1nc(C(N)=O)cs1)CCO2 [Compound S1-1] | substantially reduced; also recorded: inhibition | 24.4 µM |
| Cc1nsc(NC(=O)N2CCC(Sc3ccccc3C)CC2)n1 [Compound S2-6] | substantially reduced; also recorded: inhibition | 15.6 µM |
| Cc1c(-c2ccccc2F)[nH]c2ccc(CNC(=O)CCc3cn[nH]c3)cc12 [Compound S3-11] | substantially reduced; also recorded: inhibition | 6.35 µM |
